The results in this text go back to patent EP0007019A1, “5-Phenyl-pyrazole derivatives and their salts, processes for their preparation and medicines containing them” (Kali-Chemie Pharma GmbH, priority 1978, dated 1980).

Assay type in all cases: in vivo
In one data set the test system is unbehandelten Ratte. The data set can be described thus: Determination of triglyceride lowering in the untreated rat over 4 days. The note with it: po, 96 h, 200 mg/kg per Magensonde, 4 Tage, serum triglycerides, percent versus control, 10 animals per group, read-out: Triglyceridsenkung in %. As for the experimental part: Die Verbindungen wurden auf triglyceridsenkende Eigenschaften an der unbehandelten Ratte über einen Zeitraum von 4 Tagen untersucht. Die Substanzen wurden in der Dosierung von 200 mg/kg per Magensonde in 5 ml 1%-iger Traganth-Lösung appliziert. Die Blutentnahme erfolgte im Ätherrausch aus dem retrobulbären Venenplexus. Die Serumtriglyceride wurden nach Eggstein und Kreutz (Klin. Wschr. 44, 262 (1966)) bestimmt. Jede Gruppe bestand aus 10 Tieren. Die statistische Prüfung erfolgte nach dem Student-t-Test. Als Signifikanzgrenze diente p ≤0,01.
Die Triglyceridsenkung durch die untersuchten Substanzen in Prozent gegenüber der Kontrolle ist der Tabelle 2 zu entnehmen.

The next data set concerns NMRI-Maus. The data set can be described thus: Acute 7-day toxicity after a single administration (LD50, probit analysis). The note with it: for Toxizität: statement in words, test not specified. The source says: (§1) Die akute 7-Tage-Toxizität wurde nach einmaliger Applikation an der weißen, nüchternen NMRI-Maus bestimmt.
The next data set concerns Versuchstieren. The data set can be described thus: PCA test (passive cutaneous anaphylaxis reaction), peroral. The source says: Die neuen Verbindungen eignen sich insbesondere aufgrund ihrer oralen antianaphylaktischen Wirksamkeit zur Behandlung von allergischen Reaktionen.
Data set [1] in a line: Acute 7-day toxicity after a single administration (LD50, probit analysis). The settings on record: in vivo, single administration, fasted NMRI mouse, 7 days.
From the text: as §1

Data set [2] concerns Sprague-Dawley-Ratten mit diätetischer Hyperlipidämie. The data set can be described thus: Lipid-lowering effect in rats with dietary hyperlipidaemia, 4 weeks p.o., compared with Clofibrat; liver weight. The note with it: for Serum Gesamt-Cholesterin / Serum Triglyceride / Lebergewicht: 4 Wochen; for Serum Gesamt-Cholesterin: 20 animals per group, Kontrolle 15,2 ± 2,4; for Serum Triglyceride: Kontrolle 1,04 ± 0,34; for Lebergewicht: Kontrolle 7,3 ± 0,7. How it is done: Die Testsubstanz wurde über einen Zeitraum von 4 Wochen in Dosierungen von 100 und 200 mg/kg Körpergewicht p.o. täglich per Magensonde in 10 ml einer 1%-igen Traganth-Lösung verabreicht. Clofibrat wurde entsprechend in Dosierungen von 100 und 200 mg/kg gegeben. Die Kontrolltiere erhielten 10 ml der Trägerflüssigkeit Traganth/kg Körpergewicht per Magensonde.
Jede Gruppe bestand aus 20 Tieren; das Gewicht der Leber wurde festgestellt und verglichen.
Die Blutentnahme erfolgte im Ätherrausch aus dem retrobulbären Venenplexus.
Ausgeführt wurden Varianzanalyse und Student-t-Test. Als Signifikanzgrenze diente p≤0,01.

[3] abbreviates: 100 mg/kg p.o. täglich, mean ± spread.

Read-outs that look alike come from different tables or passages of the source.

Turning to `CC(C)(Oc1cc(-c2ccc(Cl)cc2)[nH]n1)C(N)=O` [Substanz Nr. 4, 5-(4-Chlorphenyl)-3-(2-aminocarbonylpropyl-2-oxy)-pyrazol], in the data set with unbehandelten Ratte, the inhibition in vivo at 200 mg/kg amounted to 15%.

As for `CCOC(=O)C(C)(C)Oc1cc(-c2ccc(Cl)cc2)n(-c2ccccc2)n1` [Substanz Nr. 6, 1-Phenyl-5-(4-chlorphenyl)-3-(2-äthoxycarbonyl-propyl-2-oxy)-pyrazol], in the data set on unbehandelten Ratte, the inhibition in vivo at 200 mg/kg was 20%.

“1,5-Diphenyl-3-(2-äthoxycarbonylpropyl-2-oxy)-pyrazol [Beispiel 1]” displayed an LD50 i.p. in the data set with NMRI-Maus (i.p., single administration, fasted NMRI mouse, 7 days) of 684 mg/kg. The molecule further yielded an LD50 p.o. with NMRI-Maus (p.o., single administration, fasted NMRI mouse, 7 days) above 1470 mg/kg.

Consider `CC(C)(Oc1cc(-c2ccccc2)[nH]n1)C(=O)O` [5-Phenyl-3-(2-hydroxycarbonylpropyl-2-oxy)-pyrazol], for which the Toxizität result in the data set on NMRI-Maus is given as “geringer Toxizität”. For the same molecule, the “perorale antianaphylaktische Wirksamkeit” value in the data set on Versuchstieren was “ausgeprägte perorale antianaphylaktische Wirksamkeit”.

What is called LD50 is the dose at which mortality reaches 50%. As to `CC(C)(Oc1cc(-c2ccc(Cl)cc2)n(-c2ccccc2)n1)C(N)=O` [Substanz Nr. 2, 1-Phenyl-5-(4-chlorphenyl)-3-(2-aminocarbonyl-propyl-2-oxy)-pyrazol], in the data set with unbehandelten Ratte, the inhibition in vivo at 200 mg/kg came out at 20%. The LD50 at 168 h in data set [1] (ip, read-out: LD50 i.p.) was above 100 mg/kg; in data set [1] (po, read-out: LD50 p.o.), above 1470 mg/kg.

As for `CCOC(=O)C(C)(C)Oc1cc(-c2ccccc2)[nH]n1` [Substanz Nr. 7, 5-Phenyl-3-(2-äthoxycarbonylpropyl-2-oxy)-pyrazol], in the data set with unbehandelten Ratte, the inhibition in vivo at 200 mg/kg is 25%.

Regarding `CC(C)(Oc1cc(-c2ccc(Cl)cc2)n(Cc2ccccc2)n1)C(N)=O` [Substanz Nr. 5, 1-Benzyl-5-(4-chlorphenyl)-3-(2-aminocarbonyl-propyl-2-oxy)-pyrazol], the inhibition in vivo at 200 mg/kg with unbehandelten Ratte turned out to be 15%.

Turning to `CC(C)(Oc1cc(-c2ccc(Cl)cc2)[nH]n1)C(=O)O` [5-(4-Chlorphenyl)-3-(2-hydroxycarbonylpropyl-2-oxy)-pyrazol], the Toxizität entry in the data set with NMRI-Maus was “geringer Toxizität”. The “perorale antianaphylaktische Wirksamkeit” value in the data set on Versuchstieren is “ausgeprägte perorale antianaphylaktische Wirksamkeit”.

As to `CC(C)(Oc1cc(-c2ccccc2)n(-c2ccccc2)n1)C(N)=O` [Substanz A, 1,5-Diphenyl-3-(2-aminocarbonylpropyl-2-oxy)-pyrazol], the “Serum Gesamt-Cholesterin” value in data set [2] (setting [3]) is 6,8 ± 2,4 mmol/l; in data set [2] (200 mg/kg p.o. täglich), 5,5 ± 1,4 mmol/l. Also, the results for the “Serum Triglyceride” value in data set [2] (100 mg/kg p.o. täglich) and in data set [2] (200 mg/kg p.o. täglich) were 0,83 ± 0,20 mmol/l and 0,70 ± 0,16 mmol/l, respectively. Also, the Lebergewicht in data set [2] (100 mg/kg p.o. täglich) was 7,2 ± 0,6 g/100 g; in data set [2] (200 mg/kg p.o. täglich) it was 7,4 ± 0,7 g/100 g. Moreover, the “Veränderungen der Leber (Zunahme des Lebergewichtes, Leberzellvergrößerung)” value in data set [2] (4 Wochen p.o., 100 and 200 mg/kg) is reported as “keinerlei Veränderungen der Leber”. The LD50 at 168 h in data set [1] (ip, read-out: LD50 i.p.) is 571 mg/kg; in data set [1] (po, read-out: LD50 p.o.), above 1470 mg/kg.

In the case of `CCOC(=O)C(C)(C)Oc1ccc(Cl)cc1` [Clofibrat, a-(p-Chlorphenoxy)-a-methyl-propionsäureäthylester, reference compound], the entries for the “Serum Gesamt-Cholesterin” value in data set [2] (setting [3]) and in data set [2] (200 mg/kg p.o. täglich) were 6,9 ± 2,1 mmol/l and 5,9 ± 1,7 mmol/l, respectively. Further, the figures for the “Serum Triglyceride” value in data set [2] (100 mg/kg p.o. täglich) and in data set [2] (200 mg/kg p.o. täglich) were 0,90 ± 0,16 mmol/l and 0,86 ± 0,66 mmol/l, respectively. The Lebergewicht was 8,2 ± 0,9 g/100 g in data set [2] (100 mg/kg p.o. täglich) and 8,2 ± 0,7 g/100 g in data set [2] (200 mg/kg p.o. täglich). Also, the LD50 at 168 h in data set [1] (ip, read-out: LD50 i.p.) was 566 mg/kg; in data set [1] (po, read-out: LD50 p.o.), above 1470 mg/kg.

For the molecule `CC(C)(Oc1cc(-c2cccc(Cl)c2)n(-c2ccccc2)n1)C(N)=O` [Substanz Nr. 3, 1-Phenyl-5-(3-chlorphenyl)-3-(2-aminocarbonyl-propyl-2-oxy)-pyrazol], the inhibition in vivo at 200 mg/kg in the data set on unbehandelten Ratte was found to be 30%.

Consider `CC(C)(Oc1cc(-c2ccccc2)[nH]n1)C(N)=O` [Substanz Nr. 1, 5-Phenyl-3-(2-aminocarbonylpropyl-2-oxy)-pyrazol], for which the inhibition in vivo at 200 mg/kg with unbehandelten Ratte was 15%.

As for `CC(C)(Oc1cc(-c2ccccc2)n(-c2ccccc2)n1)C(=O)O` [Substanz Nr. 8, 1,5-Diphenyl-3-(2-hydroxycarbonylpropyl-2-oxy)-pyrazol], in the data set on unbehandelten Ratte, the inhibition in vivo at 200 mg/kg was found to be 30%.
